# Assay results as given in patent US6407311B1, “Methods for production of hybrid wheat” (Yeda Research & Development Co., Ltd., priority 1997, dated 2002).
# Key:
# [1] = tested on: cultivars carrying the recessive allele su-B1 (e.g., Chinese Spring); details: Snape et al, 1991; cited from earlier work
# [2] = tested on: plants with 2n=42 (lacking the EC-HR1); assay: Chlorotoluron on selfed progeny of EC-HR1 monosomic addition plants, 2n=42; format: in vivo, common wheat
# Description: (§1) To construct the engineered chromosome EC-HR1, the dominant chlorotoluron resistance allele Su-S^s1 is transferred from chromosome arm 6S^sL of a selected line of Ae. searsii into the 6S^lL arm of the engineered chromosome EC-H1. This is achieved by crossing a […] female parent derived from the male-fertile maintainer line in the common wheat cultivar Chinese Spring. This female parent is homozygous for the ms-B1, su-B1 and Ki-B1 alleles and has, as a monosomic addition, the engineered chromosome EC-H1 (4S^sS/6S^lL) carrying on its short arm the Ms-S^s1 and rht-S^s1 alleles and on its long arm the su-S1ki-S^l1-a alleles, with a line of the diploid species Ae. searsii carrying the chlorotoluron resistance allele on the long arm of chromosome 6S^s, i.e., on 6S^sL, as well as the Ms-S^s1 and rht-S^s1 alleles on 4S^sS. About 20% of the F1 progeny have the engineered chromosome EC-H1 and therefore contain 2n=29 chromosomes and can be distinguished from the other F1 plants having 2n=28. […] Pollinating the 2n=29 F1 plants once or twice with Chinese Spring, homozygous for su-B1 yields plants with 2n=43 (21″+1′) containing the desired engineered chromosome EC-HR1 as a monosomic addition.
# [3] = tested on: line of Ae. searsii carrying the chlorotoluron resistance allele Su-S^s1; assay: Spraying chlorotoluron on the Ae. searsii line carrying Su-S^s1; format: in vivo, Aegilops searsii; details: sprayed at double the rate recommended at commercial fields
# Description: Different cultivars of common wheat show different reaction to the herbicide chlorotoluron and to other phenyl derivatives of urea; several cultivars carrying the dominant allele Su-B1 (e.g., Cappelle Desprez) are resistant while others carrying the recessive allele su-B1 (e.g., Chinese Spring) are susceptible (Snape et al, 1991). The gene is located on the long arm of chromosome 6B (6BL) about 0.5 cM from the centromere. […] Since chromosome 6S^sL of Ae. searsii pairs almost regularly with 6S^lL of Ae. longissima, it is possible to transfer the resistance allele to the 6S^lL arm of the engineered chromosome EC-H (FIGS. 8a,b), thus producing the engineered chromosome of the EC-HR type. […] The presence of the chlorotoluron resistance allele on the engineered chromosome facilitates the selective killing, in each generation, of the male-sterile plants that lack the engineered chromosome while unaffecting the male-fertile maintainer plants (with the engineered chromosome) in the progeny of the selfed maintainer. This will assure, that in each generation, only the male-fertile offspring of the selfed maintainer, will grow. […]
# [4] = tested on: lines of diploid Aegilops species; assay: Reaction of lines of diploid Aegilops species to chlorotoluron; format: in vivo; details: most lines
# Description: Different cultivars of common wheat show different reaction to the herbicide chlorotoluron and to other phenyl derivatives of urea; several cultivars carrying the dominant allele Su-B1 (e.g., Cappelle Desprez) are resistant while others carrying the recessive allele su-B1 (e.g., Chinese Spring) are susceptible (Snape et al, 1991). The gene is located on the long arm of chromosome 6B (6BL) about 0.5 cM from the centromere. […] Since chromosome 6S^sL of Ae. searsii pairs almost regularly with 6S^lL of Ae. longissima, it is possible to transfer the resistance allele to the 6S^lL arm of the engineered chromosome EC-H (FIGS. 8a,b), thus producing the engineered chromosome of the EC-HR type. […] The presence of the chlorotoluron resistance allele on the engineered chromosome facilitates the selective killing, in each generation, of the male-sterile plants that lack the engineered chromosome while unaffecting the male-fertile maintainer plants (with the engineered chromosome) in the progeny of the selfed maintainer. This will assure, that in each generation, only the male-fertile offspring of the selfed maintainer, will grow.
# [5] = tested on: cultivars carrying the dominant allele Su-B1 (e.g., Cappelle Desprez); details: Snape et al, 1991; cited from earlier work
# [6] = tested on: plants of common wheat homozygous for the herbicide susceptibility allele su-B1; assay: Spraying chlorotoluron on common wheat homozygous for su-B1; format: in vivo; details: sprayed at double the rate recommended at commercial fields
# Description: To test the effect of chlorotoluron on the various genotypes we sprayed this herbicide at a rate which is double of the recommended at commercial fields on plants of common wheat homozygous for the herbicide susceptibility allele su-B1 and the line of Ae. searsii carrying the chlorotoluron resistance allele Su-S^s1. All plants carrying the recessive su-B1 allele died within 10-14 days from spraying while those carrying the dominant Su-S^s1 allele survived.
# [7] = tested on: plants with 2n=43 carrying the EC-HR1; assay: Chlorotoluron on selfed progeny of EC-HR1 monosomic addition plants, 2n=43; format: in vivo, common wheat
# Description: as §1
compound,measurement,setting,value
"Cc1ccc(NC(=O)N(C)C)cc1Cl [chlorotoluron, 3-(3-chloro-p-tolyl)-1,1-dimethylurea]",reaction to the herbicide,[1],susceptible
same,effect on plants lacking the resistance allele,[2],kills all plants
same,outcome of plants after spraying,[3],survived
same,reaction to the herbicide,[4],susceptible
same,reaction to the herbicide,[5],resistant
same,outcome of plants after spraying,[6],died
same,time to death from spraying,[6],10 to 14 days
same,effect on plants carrying EC-HR1,[7],unaffected
